# Assay results taken from patent US9649309B2 (priority 2014, dated 2017).
# Where two headings read alike, the source gives them in different places.
# How the values were obtained:
# Tyro3 [1] = molecular target: T1, Tyro3 (Homo sapiens (Human), UniProt Q06418); assay: biochemical
# Axl [2] = molecular target: T2, Axl (Homo sapiens (Human), UniProt P30530); assay: biochemical
# MerTK = MerTK (Homo sapiens (Human), UniProt Q12866); details: read-out: IC50 MerTK
# Tyro3 [3] = molecular target: T1, Tyro3; details: read-out: IC50 Tyro3
# Axl [4] = molecular target: T2, Axl; details: read-out: IC50 Axl
# T1 sequence (Q06418 41-890 limits assumed): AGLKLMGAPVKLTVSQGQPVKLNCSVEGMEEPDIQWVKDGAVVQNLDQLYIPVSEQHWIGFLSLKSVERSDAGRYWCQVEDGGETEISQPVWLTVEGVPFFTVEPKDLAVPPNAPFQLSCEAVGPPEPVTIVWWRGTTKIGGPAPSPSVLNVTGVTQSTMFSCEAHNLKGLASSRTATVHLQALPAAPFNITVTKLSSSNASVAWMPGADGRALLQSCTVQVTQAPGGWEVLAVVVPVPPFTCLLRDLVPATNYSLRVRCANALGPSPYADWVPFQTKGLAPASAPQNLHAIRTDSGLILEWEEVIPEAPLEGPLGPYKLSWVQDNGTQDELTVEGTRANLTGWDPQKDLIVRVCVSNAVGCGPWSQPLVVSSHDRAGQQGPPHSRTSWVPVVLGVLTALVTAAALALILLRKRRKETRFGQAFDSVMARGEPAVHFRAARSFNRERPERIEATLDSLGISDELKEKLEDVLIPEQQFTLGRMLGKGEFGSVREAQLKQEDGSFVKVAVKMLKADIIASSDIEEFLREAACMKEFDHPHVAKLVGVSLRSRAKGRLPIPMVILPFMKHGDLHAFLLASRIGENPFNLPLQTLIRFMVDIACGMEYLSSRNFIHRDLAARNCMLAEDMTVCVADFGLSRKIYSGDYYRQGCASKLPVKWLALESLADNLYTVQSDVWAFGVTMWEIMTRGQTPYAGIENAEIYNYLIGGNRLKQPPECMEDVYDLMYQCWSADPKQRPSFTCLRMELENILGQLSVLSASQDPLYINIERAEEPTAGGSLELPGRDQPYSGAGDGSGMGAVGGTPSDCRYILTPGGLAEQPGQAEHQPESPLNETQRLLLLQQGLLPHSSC
# T2 sequence (P30530 26-894 limits assumed): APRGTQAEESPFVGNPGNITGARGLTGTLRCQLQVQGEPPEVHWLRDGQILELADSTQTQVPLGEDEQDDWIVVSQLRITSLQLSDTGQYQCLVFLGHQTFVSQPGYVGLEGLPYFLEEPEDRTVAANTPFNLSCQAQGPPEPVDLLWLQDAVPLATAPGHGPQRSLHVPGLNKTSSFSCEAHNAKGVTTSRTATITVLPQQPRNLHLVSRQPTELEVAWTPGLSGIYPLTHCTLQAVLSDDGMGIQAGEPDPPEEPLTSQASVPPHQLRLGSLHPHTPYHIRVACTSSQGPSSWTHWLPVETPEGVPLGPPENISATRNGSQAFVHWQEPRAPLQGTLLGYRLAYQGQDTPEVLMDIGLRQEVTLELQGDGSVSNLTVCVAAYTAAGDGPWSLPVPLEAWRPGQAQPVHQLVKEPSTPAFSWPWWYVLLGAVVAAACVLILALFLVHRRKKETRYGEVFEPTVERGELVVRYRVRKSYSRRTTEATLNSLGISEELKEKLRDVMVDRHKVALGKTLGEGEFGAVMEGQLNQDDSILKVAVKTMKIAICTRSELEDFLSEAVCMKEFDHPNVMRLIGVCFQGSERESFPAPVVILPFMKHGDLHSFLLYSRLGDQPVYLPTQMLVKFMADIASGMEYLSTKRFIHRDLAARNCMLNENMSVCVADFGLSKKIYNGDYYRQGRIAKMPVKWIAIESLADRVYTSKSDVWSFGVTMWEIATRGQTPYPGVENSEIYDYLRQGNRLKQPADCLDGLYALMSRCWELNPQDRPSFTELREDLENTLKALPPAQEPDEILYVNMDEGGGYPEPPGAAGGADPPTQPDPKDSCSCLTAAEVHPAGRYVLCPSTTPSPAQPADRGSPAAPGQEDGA
# Chain of MerTK (Q12866 21-999 limits assumed): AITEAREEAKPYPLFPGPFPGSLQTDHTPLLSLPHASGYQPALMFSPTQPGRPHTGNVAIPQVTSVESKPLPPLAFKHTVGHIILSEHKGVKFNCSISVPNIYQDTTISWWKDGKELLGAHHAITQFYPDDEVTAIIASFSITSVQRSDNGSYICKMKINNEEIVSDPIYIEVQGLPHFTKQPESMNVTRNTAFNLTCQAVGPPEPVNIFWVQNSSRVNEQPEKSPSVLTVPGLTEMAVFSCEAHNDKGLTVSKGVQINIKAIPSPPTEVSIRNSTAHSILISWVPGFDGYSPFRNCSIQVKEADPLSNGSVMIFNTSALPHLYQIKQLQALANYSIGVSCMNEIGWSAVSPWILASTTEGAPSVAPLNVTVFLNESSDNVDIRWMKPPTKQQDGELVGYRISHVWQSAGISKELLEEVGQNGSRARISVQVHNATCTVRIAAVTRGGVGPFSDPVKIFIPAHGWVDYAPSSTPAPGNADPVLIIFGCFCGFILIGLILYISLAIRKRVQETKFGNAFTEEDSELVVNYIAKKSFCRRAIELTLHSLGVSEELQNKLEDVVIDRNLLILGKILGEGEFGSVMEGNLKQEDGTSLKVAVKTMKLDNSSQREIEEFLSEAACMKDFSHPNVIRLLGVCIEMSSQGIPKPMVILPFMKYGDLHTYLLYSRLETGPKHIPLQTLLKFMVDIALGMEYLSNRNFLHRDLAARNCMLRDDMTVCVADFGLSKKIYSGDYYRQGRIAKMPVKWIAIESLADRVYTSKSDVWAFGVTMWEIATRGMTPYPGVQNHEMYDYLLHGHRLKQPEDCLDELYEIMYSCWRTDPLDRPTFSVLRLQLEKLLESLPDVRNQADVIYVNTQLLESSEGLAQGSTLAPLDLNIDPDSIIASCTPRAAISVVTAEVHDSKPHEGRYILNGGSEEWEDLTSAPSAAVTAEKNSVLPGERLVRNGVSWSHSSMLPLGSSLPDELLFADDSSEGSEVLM
SMILES,IC50 (Tyro3 [1]) [nM],IC50 (Axl [2]) [nM],IC50 (MerTK) [nM],IC50 (Tyro3 [3]) [nM],IC50 (Axl [4]) [nM]
CCCCNc1ncc(C(=O)NCCCN2CCOCC2)c(N[C@H]2CC[C@H](O)CC2)n1 [UNC1839A],1070,951,,,
CCCCNc1ncc(C(=O)NCCCCO)c(N[C@H]2CC[C@H](O)CC2)n1 [UNC1844A],1080,1180,,,
CCCCNc1ncc(C(=O)Nc2ccc(CCO)cc2)c(N[C@H]2CC[C@H](O)CC2)n1 [UNC1846A],1070,1190,,,
CCCCNc1ncc(C(=O)NCc2ccncc2)c(N[C@H]2CC[C@H](O)CC2)n1 [UNC1849A],1740,1260,,,
CCCCNc1ncc(C(=O)NCCc2ccc(F)cc2)c(N[C@H]2CC[C@H](O)CC2)n1 [UNC1850A],1210,1640,,,
CCCCNc1ncc(-c2ccc(CN3CCCN(C)CC3)cn2)c(N[C@H]2CC[C@H](O)CC2)n1 [UNC2405A],98,183,,,
CCCCNc1ncc(-c2ccc(CN3CCCC3)cn2)c(N[C@H]2CC[C@H](O)CC2)n1 [UNC2490A],18,36,,,
CCCCNc1ncc(-c2ccc(CNCC3CC3)cn2)c(N[C@H]2CC[C@H](O)CC2)n1 [UNC2547A],11,30,,,
CCCCNc1ncc(-c2ccc(CNCc3ccncc3)cn2)c(N[C@H]2CC[C@H](O)CC2)n1 [UNC2571A],18,44,,,
CCCCNc1ncc(-c2ccc(CNCc3ccccc3)cn2)c(N[C@H]2CC[C@H](O)CC2)n1 [UNC2572A],43,136,,,
CCCCNc1ncc(-c2cccc(CN3CCN(C)CC3)n2)c(N[C@H]2CC[C@H](O)CC2)n1 [UNC2622A],162,296,,,
CCCCNc1ncc(C(=O)NC2CC(C)(C)N(C)C(C)(C)C2)c(N[C@H]2CC[C@H](O)CC2)n1 [UNC2695A],76,233,,,
CCCCNc1ncc(C(=O)NC2CCN(C3CCN(C)CC3)CC2)c(N[C@H]2CC[C@H](O)CC2)n1 [UNC2698A],43,175,,,
CCCCNc1ncc(C(=O)NC2CCCCCC2)c(N[C@H]2CC[C@H](O)CC2)n1 [UNC2734A],505,665,,,
CCCCNc1ncc(C(=O)NCc2ccc(CN3CCOCC3)cc2)c(N[C@H]2CC[C@H](O)CC2)n1 [UNC2735A],145,189,,,
CCCCNc1ncc(C(=O)NC2CCC2)c(N[C@H]2CC[C@H](O)CC2)n1 [UNC2737A],443,491,,,
CCCCNc1ncc(C(=O)NCC2CCN(C)CC2)c(N[C@H]2CC[C@H](O)CC2)n1 [UNC2742A],247,534,,,
CCCCNc1ncc(C(=O)NCC2CCN(C3CCCC3)CC2)c(N[C@H]2CC[C@H](O)CC2)n1 [UNC2743A],84,166,,,
CCCCNc1ncc(-c2ccc(CCCN3CCN(C)CC3)cn2)c(N[C@H]2CC[C@H](O)CC2)n1 [UNC2792A],75,191,,,
CCCCNc1ncc(-c2ccc(C#CCN3CCN(C)CC3)cn2)c(N[C@H]2CC[C@H](O)CC2)n1 [UNC2793A],60,153,,,
CCCCNc1ncc(-c2cnccn2)c(N[C@H]2CC[C@H](O)CC2)n1 [UNC2794A],158,604,,,
CCCCNc1ncc(-c2ccc(CCN3CCN(C)CC3)cn2)c(N[C@H]2CC[C@H](O)CC2)n1 [UNC2795A],82,211,,,
CCCCNc1ncc(-c2ccc3ccccc3n2)c(N[C@H]2CC[C@H](O)CC2)n1 [UNC2860A],755,30000,,,
CCCCNc1ncc(-c2ncc(COCc3ccccc3)s2)c(N[C@H]2CC[C@H](O)CC2)n1 [UNC2863A],1220,2610,,,
CCCCNc1ncc(-c2ccc(CN3CCOCC3)o2)c(N[C@H]2CC[C@H](O)CC2)n1 [UNC2898A],374,2550,,,

SMILES,IC50 (Tyro3 [1]) [nM],IC50 (Axl [2]) [nM],IC50 (MerTK) [nM],IC50 (Tyro3 [3]) [nM],IC50 (Axl [4]) [nM]
CCCCNc1ncc(-c2ccc(CN3CC(F)(F)C3)o2)c(N[C@H]2CC[C@H](O)CC2)n1 [UNC2900A],370,1850,,,
CCCCNc1ncc(-c2ccc(C(=O)N(C)C3CCN(C)CC3)cn2)c(N[C@H]2CC[C@H](O)CC2)n1 [UNC2915A],6.5,49,,,
CCCCNc1ncc(-c2ccc(F)cn2)c(NC[C@H]2CC[C@H](N)CC2)n1 [UNC3021A],114,621,,,
CCCCNc1ncc(-c2ccc(C(=O)NC3CCN(C)CC3)o2)c(N[C@H]2CC[C@H](O)CC2)n1 [UNC3181A],507,1030,,,
CCCCNc1ncc(-c2cc(NC(C)C)ncn2)c(N[C@H]2CC[C@H](O)CC2)n1 [UNC3192A],77,86,,,
CCCCNc1ncc(-c2cc(NC3CC3)ncn2)c(N[C@H]2CC[C@H](O)CC2)n1 [UNC3193A],115,169,,,
CCCCNc1ncc(-c2cc(NC3CCCCC3)ncn2)c(N[C@H]2CC[C@H](O)CC2)n1 [UNC3194A],239,260,,,
CCCCNc1ncc(-c2cc(N3CCCC3)ncn2)c(N[C@H]2CC[C@H](O)CC2)n1 [UNC3195A],230,188,,,
CCCCNc1ncc(-c2cc(N3CCOCC3)ncn2)c(N[C@H]2CC[C@H](O)CC2)n1 [UNC3196A],1000,2130,,,
CCCCNc1ncc(-c2cc(N3CCN(C)CC3)ncn2)c(N[C@H]2CC[C@H](O)CC2)n1 [UNC3197A],1170,1680,,,
CCCCNc1ncc(-c2cc(N3CCCCC3)ncn2)c(N[C@H]2CC[C@H](O)CC2)n1 [UNC3198A],3740,6070,,,
CCCCNc1ncc(-c2cc(NC3CCCC3)ncn2)c(N[C@H]2CC[C@H](O)CC2)n1 [UNC3199A],847,1360,,,
CCCCNc1ncc(-c2cc(NC(C)(C)C)ncn2)c(N[C@H]2CC[C@H](O)CC2)n1 [UNC3200A],259,480,,,
CCCCCNc1cc(-c2cnc(NCCCC)nc2N[C@H]2CC[C@H](O)CC2)ncn1 [UNC3201A],195,112,,,
CCCCNc1ncc(-c2ncc(CN3CCCC3)s2)c(N[C@H]2CC[C@H](O)CC2)n1 [UNC4223A],14,29,,,
"CCCCNc1ncc(-c2ccc(CC3CCN(C)CC3)cn2)c(N[C@H]2CC[C@H](O)CC2)n1 [UNC4337A, Trans-4-((2-(butylamino)-5-(5-((1-methylpiperidin-4-yl)methyl)pyridin-2-yl)pyrimidin-4-yl)amino)cyclohexan-1-ol]",,,4.4,66,74
"CCCCNc1ncc(-c2ccc(CC3CCN(C(C)C)CC3)cn2)c(N[C@H]2CC[C@H](O)CC2)n1 [UNC4339A, trans-4-((2-(butylamino)-5-(5-((1-isopropylpiperidin-4-yl)methyl)pyridin-2-yl)pyrimidin-4-yl)amino)cyclohexan-1-ol]",,,,22,39
CCCCNc1ncc(-c2ccc(C=C3CCN(C(C)C)CC3)cn2)c(N[C@H]2CC[C@H](O)CC2)n1 [UNC4340A],,,1.1,8.5,9.2
CCCCNc1ncc(C(=O)NCc2cncs2)c(N[C@H]2CC[C@H](O)CC2)n1 [UNC4344A],,,,276,196
CCCCNc1ncc(-c2cc(Nc3cccc(-c4ccccc4)c3)ncn2)c(N[C@H]2CC[C@H](O)CC2)n1 [UNC4353A],,,,15100,30000
CCCCNc1ncc(-c2ccc(C3=CCNCC3)cn2)c(N[C@H]2CC[C@H](O)CC2)n1 [UNC4354A],,,,24,27
CCCCNc1ncc(-c2ccc(C3=CCN(C(C)C)CC3)cn2)c(N[C@H]2CC[C@H](O)CC2)n1 [UNC4358A],,,,42,24
"CCCCNc1ncc(-c2ccc(CC3CCNC3)cn2)c(N[C@H]2CC[C@H](O)CC2)n1 (stereo partly drawn) [UNC4386A, trans-4-((2-(butylamino)-5-(5-(pyrrolidin-3-ylmethyl)pyridin-2-yl)pyrimidin-4-yl)amino)cyclohexan-1-ol]",,,,53,53
CCCCNc1ncc(-c2ccc(C3=CCC(CN(C)C)CC3)cn2)c(N[C@H]2CC[C@H](O)CC2)n1 (stereo partly shown) [UNC4387A],,,,488,320
